From patent publication US5574068A, “S-nitrosothiols as smooth muscle relaxants and therapeutic uses thereof” (Brigham and Woman's Hospital, priority 1994, dated 1996)
“Also recorded” adds a separate entry of the source.

Legend:
[1] = tested on: human airway smooth muscle; experiment: Airway bioassay: relaxation of contracted human tracheal/airway rings; type: cell-based; conditions: for relaxant effect on human trachea, comparison with other agents: human tracheal rings, FIGS. 11-14; for IC50: human airways 5-12 mm outer diameter, contracted with methacholine (7 μM); for IC50 compared with theophylline: human airways contracted with methacholine (7 μM); for inhibition of S-nitrosothiol (SNOAC)-induced relaxation in human airways: methylene blue 10^-4, LY83583 5×10^-5, hemoglobin 100 μM
From the text: (§1) Male Hartley guinea pigs (500-600 g) were anesthetized by inhalation of enflurane to achieve a surgical plane of anesthesia. The trachea were excised and placed in Kreb's-Henseleit buffer (mM): NaCl 118, CKl 5.4, NaH2 PO4 1.01, glucose 11.1, NaHCO3 25.0, MgSO4 0.69, CaCl 2.32, pH 7.4. The airways were then dissected free from surrounding fat and connective tissue and cut into rings 2-4 mm in diameter. The trachea rings were placed in sterile Medium 199 containing 1% antibiotic/antimycotic mixture in an atmosphere of 5% CO2, 45% O2, […], and kept for up to 48 hours in tissue culture. The experiments were also performed on human airway smooth muscle, isolated by the same method.
(§2) Trachea and aortic rings were mounted on stirrups and connected to transducers (model FOT3C Grass) with which changes in isometric tension were measured. Rings were then suspended in 10 cc of oxygenareal (95% O2, 5% CO2) buffer. Conditions for both the vessel and airway bioassays were established according to standard methodologies as described in Cooke et al., Am. J. Physiol. 259(3):H804-H812 (1990).
(§3) In airway experiments, the tings were equilibrated for 60 minutes under a load of 1 gm and then primed twice by exposure to 100 μmethacholine. Tissues were contracted with various agonists at concentrations determined to generate 50% (±16% S.D.) of maximum tone, after which the effects of different thiols and their S-nitrosylated derivatives were assessed. In selected experiments, relaxation responses were determined in the presence of hemoglobin, or after rings had been preexposed to methylene blue for 30 minutes.
(§4) The effect of guanylate cyclase inhibitors upon S-nitrosothiol-induced airway relaxation and cGMP increase was assessed, using the previously described bioassay and cyclic nucleotide assay procedures. Bronchodilator effects of S-NOGSH and SNOAC were examined in human airways (5-12 mm outer diameter).

hemoglobin = molecular target: T1, hemoglobin (Bos taurus, UniProt P01966+P02070); experiment: Reaction of S-nitrosothiol with hemoglobin (UV spectrum, oxygen association curve); type: biochemical, bovine; conditions: SNOAC over 15 minutes, NO from NaNO2 in 0.5N HCl
T1 construct: purchased Sigma Chemical Co., St. Louis, Mo
Description: Additional experiments were conducted to evaluate the reaction between S-nitrosothiols and hemoglobin. […] S-nitrosylation was verified, using standard methods for detection of S-nitrosothiols (Saville, Analyst 83:670-672 (1958)). The Saville method, which assays free NOx in solution, involves a diazotization reaction with sulfanilamide and subsequent coupling with the chromophore N-(1-naphthyl)ethylenediamine. The specificity for S-nitrosothiols derives from assay determinations performed in the presence and absence of HgCl2, the latter reagent catalyzing the hydrolysis of the S--NO bond.
For the purposes of comparison, equimolar concentrations of hemoglobin and NaNO2 were reacted in 0.5N HCl, to form nitrosyl-hemoglobin, and the UV spectrum was obtained.
Thus, the reaction between S-nitrosothiols and hemoglobin not only eliminates the inhibition of oxygen binding which occurs from the reaction with NO.cndot., but actually increases binding and oxygenation of the blood.

[2] = Stability in the presence of oxygen and redox metals; type: physicochemical; conditions: 95% O2, pH 7.4
Description: The stability of SNOAC and SNOGSH in the presence of oxygen and redox metals was assessed.
In addition, S-nitrosothiol stability was assessed in the presence of various redox metals or chelating agents. These compounds were resistant to decomposition when Cu^+, Fe^2+, or Cu^2+ (50 μM) or defuroxamine or EDTA S-nitrosothiols are not rapidly inactivated in the presence of oxygen, nor do they decompose in the presence of redox metals.

[3] = tested on: guinea pig tracheal rings; experiment: Airway bioassay: relaxation of contracted guinea pig tracheal rings (isometric tension); type: cell-based; conditions: for IC50: Cavia porcellus, guinea pig tracheal rings contracted with 3 μM histamine, mean ± S.D., read-out: Inhibitory Concentrations Inducing 50% Relaxation (IC50); for inhibition of relaxation responses to SNOAC: airways contracted with 3 uM histamine, 10^-5 M and 10^-4 M methylene blue; for inhibition of relaxation responses to SNOAC / attenuation of the actions (relaxation) of SNOAC: 10^-4 M hemoglobin; for attenuation of the actions (relaxation) of SNOAC: guinea pig airways, 10^-5 and 10^-4 M methylene blue
From the text: as §1, §2, §3
Dose-response relationships to SNOAC were obtained in airways contracted with 3 uM histamine, and repeated in the presence of 10^-4 M hemoglobin, 10^-5 M methylene blue, and 10^-4 M methylene blue. […] Cyclic GMP determinations were performed in duplicate for each experiment.

[4] = tested on: gastrointestinal smooth muscle (Sphincter of Oddi, duodenum, colon); experiment: Patient studies: topical administration during endoscopy, gastrointestinal smooth muscle motility; type: in vivo, human; conditions: patients
From the text: Patient studies, conducted by the inventors, have measured the efficacy of S-nitrosothiols both in facilitating cannulation of the sphincter of Oddi, and in decreasing colon motility to allow for removal of colon polyps. […] The same type of effects would occur with the use of other cell impermeable S-nitrosothiols, such as S-nitroso-glutathione.

[5] = tested on: cyclic GMP (guanylate cyclase) in tracheal rings; experiment: Cyclic GMP radioimmunoassay in guinea pig tracheal rings; type: cell-based
Description: (§5) The mechanism by which S-nitrosothiols relax vascular smooth muscle is felt to be through activation of guanylate cyclase with consequent increase in intracellular cyclic GMP (Ignarro et al., Circ. Res. 65:1-21 (1989); Loscalzo et al., J. Pharmacol. Exp. Ther. 249(3):726-729 (1989)). In order to assess this mechanism in airways, tracheal rings in Kreb's-Henseleit solution were exposed to 100 μM S-nitroso-N-acetylcysteine (SNOAC) for 90 seconds. Reactions were terminated by the addition of ice cold 10% trichloracetic acid and rapid freezing in ethanol-saturated dry ice.
(§6) In selected experiments, rings were preexposed to the guanylate cyclase inhibitor, methylene blue (10^-4 M) for 30 minutes. Tissues were then individually pulverized with a glass (s) homogenizer and centrifuged at 8000 g for 5 minutes. The clear supernatant was extracted with water-saturated ether and assayed for cyclic GMP by radioimmunoassay. Acetylation of samples with acetic anhydride was used to increase the sensitivity of the assay and the determination of recoveries was aided by the use of [^3 H] cyclic GMP.

cGMP in human airways = experiment: Cyclic GMP radioimmunoassay in human airways; type: cell-based
Description: as §5, §6, §4

[6] = cited from earlier work

T1 sequence (P02070 whole entry): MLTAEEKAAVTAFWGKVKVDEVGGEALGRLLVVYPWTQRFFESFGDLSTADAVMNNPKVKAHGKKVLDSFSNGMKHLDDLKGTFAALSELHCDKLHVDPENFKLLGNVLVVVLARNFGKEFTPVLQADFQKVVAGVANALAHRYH
T1 sequence (P01966 2-142 limits assumed): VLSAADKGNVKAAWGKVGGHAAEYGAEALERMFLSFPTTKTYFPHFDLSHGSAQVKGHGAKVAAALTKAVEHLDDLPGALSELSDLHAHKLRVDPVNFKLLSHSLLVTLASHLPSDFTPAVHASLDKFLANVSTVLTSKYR

For `CC(=O)N[C@@H](CS)C(=O)O` [N-acetylcysteine, reference compound], the “relaxant effect on human trachea, comparison with other agents” value (from here on “relaxant effect on human trachea”) [1] was “caused significant constriction of the tracheal smooth muscle”.
For `[N]=O` [NO, nitric oxide, reference compound], the “reaction at the redox metal (iron-binding) site of hemoglobin” value (hemoglobin) was “reacted instantaneously with the redox metal site on hemoglobin” and the half life [2] was “on the order of seconds”.
With `CC(=O)N[C@@H](CSN=O)C(=O)O` [S-nitroso-N-acetylcysteine] the “reaction at the redox metal (iron-binding) site of hemoglobin” value (hemoglobin) was “no reaction at the redox metal (iron-binding site) of hemoglobin”, the half life [2] was “on the order of hours” and the persistence of relaxation ([3]; 5×10^-6 M, at one hour) was “significant residual loss of tone was still evident at one hour”. The “time to maximal relaxation” value ([3]; 5×10^-6 M, followed over 60 minutes) was “maximal relaxation occurred by five minutes”, the IC50 [3] was 2.1 ± 0.8 µM and the “relaxant activity of SNOAC relative to SNOCAP” value ([3]; contractions induced by leukotriene D4, histamine, methacholine, in every case) was “approximately 10 fold”. The “relaxant activity relative to theophylline” value ([3]; identical study conditions, FIG. 8) was “approximately 50 times”, the “duration and reversibility of relaxant effects” value [4] was “temporary (lasting only for the duration of the procedure), completely reversible” and the “systemic blood pressure, heart rate, oxygen saturation” value [4] was “produced no change in systemic blood pressure, heart rate or oxygen saturation”. For the same compound, the colon motility ([4]; removal of colon polyps) was “eliminated colon motility”, the duodenal motility ([4]; topical administration) was “eliminated duodenal motility” and the “contractile activity of the Sphincter of Oddi” value ([4]; topical administration, endoscopic cannulation) was “inhibited the contractile activity of the Sphincter of Oddi”. The “increase in cyclic GMP over basal levels (control)” value ([5]; guinea pig tracheal rings, 100 μM SNOAC, 90 seconds) was 4 fold, the “increase in cyclic GMP over basal levels (control)” value (cGMP in human airways; human airways incubated with SNOAC) was 4 fold and the cGMP (cGMP in human airways; human airways, Table 3) was 46 ± 17 Pmol/gm. For the same compound, the IC50 [1] was 22 µM, the “IC50 compared with theophylline” value [1] was “approximately two orders of magnitude greater than theophylline” and the “relaxant effect on human trachea” value ([1]; listed as SNOAC) was “significantly greater than that of N-acetylcysteine; also recorded: significantly more potent than that of theophylline; also recorded: compares favorably with that exerted by isoproterenol”.
`C[C@H](CSN=O)C(=O)N1CCC[C@H]1C(=O)O` [S-nitroso-captopril] gave an IC50 [3] of 20 ± 0.7 µM.
`N[C@@H](CSN=O)C(=O)O` [S-nitroso-cysteine] gave an IC50 [3] of 3.2 ± 0.2 µM.
With `N[C@@H](CCC(=O)N[C@@H](CSN=O)C(=O)NCC(=O)O)C(=O)O` [S-nitroso-glutathione] the half life [2] was “on the order of hours”, the IC50 [3] was 0.99 ± 2 µM and the IC50 [1] was 22 µM. For the same compound, the “IC50 compared with theophylline” value [1] was “approximately two orders of magnitude greater than theophylline”, the “relaxant effect on human trachea” value [1] was “significantly greater than nitrite (NO2)” and the “relaxant effect on human trachea” value ([1]; listed as S-nitrosoglutathione) was “significantly greater than glutathione alone”. The “relaxant effect on human trachea” value ([1]; listed as SNOGSH) was “significantly more potent than that of theophylline; also recorded: compares favorably with that exerted by isoproterenol”.
`N[C@@H](CCSN=O)C(=O)O` [S-nitroso-homocysteine] showed an IC50 [3] of 2.1 ± 0.3 µM.
With `CC(C)NCC(O)c1ccc(O)c(O)c1` (stereo not shown) [isoproterenol, reference compound] the “rank of relaxant activity among SNOAC, isoproterenol, theophylline” value ([3]; FIG. 8) was “most active relaxant”.
In the case of `CN(C)c1ccc2nc3ccc(=[N+](C)C)cc-3sc2c1` [methylene blue, reference compound], the “inhibition of relaxation responses to SNOAC” value [3] is reported as “in a dose-dependent manner”, the “attenuation of the actions (relaxation) of SNOAC” value [3] is reported as 10-20% and the “effect on SNOAC-induced increase in cyclic GMP” value ([5]; pretreatment with methylene blue 10^-4 M, 30 minutes) is reported as “attenuated”. The “inhibition of S-nitrosothiol (SNOAC)-induced relaxation in human airways” value [1] was “neither hemoglobin or methylene blue attenuated the relaxation effect; also recorded: not significantly inhibited”.
For `Cn1c(=O)c2[nH]cnc2n(C)c1=O` [theophylline], the “plasma concentration at which unacceptable symptoms of toxicity usually appear” value [6] is listed as no less than 20000 ng/mL.
With “hemoglobin: hemoglobin (bovine), established inhibitor of NO-induced relaxations” the “inhibition of relaxation responses to SNOAC” value [3] was “inhibited”, the “attenuation of the actions (relaxation) of SNOAC” value [3] was 10-20% and the “inhibition of S-nitrosothiol (SNOAC)-induced relaxation in human airways” value [1] was “neither hemoglobin or methylene blue attenuated the relaxation effect; also recorded: had little effect”.
